Experimental data as given in US20110002843A1, “METHOD OF DETECTING MYOCARDIAL DYSFUNCTION IN PATIENTS HAVING A HISTORY OF ASTHMA OR BRONCHOSPASM” (priority 2005, published 2011).

Assay: Pulmonary responses and safety in human subjects with mild, intermittent asthma (single-blind and double-blind parts)
Format: in vivo
Settings: for FEV1 (L) Mean % Change from Baseline (SD) / FEV1 (L) Mean (SD) / FVC Mean % Change from Baseline (SD) / FVC Mean (SD) / changes from baseline in mean FEV1, FEV1 (% predicted), FEF25%-75%, FVC / subjects with treatment-emergent AEs / FEF25%-75% Mean % Change from Baseline (SD) / FEF25%-75% Mean (SD) / FEV1 (% predicted) Mean % Change from Baseline (SD) / FEV1 (% predicted) Mean (SD): single-blind
Description: Methodology: The study consisted of 2 parts, a Single-Blind Part and a Double-Blind Part. The dose escalating, Single-Blind Part enrolled subjects with mild, intermittent asthma and consisted of 3 sequentially enrolled dosing cohorts with 8 subjects per cohort, such that Dosing Cohorts 1, 2 and 3 received binodenoson target doses of 0.5 μg/kg, 1.0 μg/kg and 1.5 μg/kg, respectively. All 8 subjects in a dosing cohort must have completed dosing at the assigned dose and a medical review of each cohort must have been acceptable before enrollment in the next cohort began. The Double-Blind Part was initiated only if the medical review of all safety data from the Single-Blind Part was acceptable. In the Double Blind Part, subjects with mild, intermittent asthma were randomly assigned in a 2:1 ratio to receive either binodenoson 1.5 μg/kg (n=40 planned) or placebo control (n=20 planned).
Both study parts were comprised of Screening, Treatment and Follow-Up Visits. The Screening Visit occurred 7 to 14 days before the Treatment Visit and consisted of a physical examination, medical history and application of inclusion and exclusion criteria. Subjects were instructed to measure peak expiratory flow (PEF) and asthma symptoms during a period of at least 7 days prior to the Treatment Visit. Subjects were to continue to meet all Screening eligibility criteria at the Treatment Visit and forced expiratory volume in 1 second (FEV1) was to remain within 80% of predicted for subjects to be eligible for dosing. All subjects enrolled in the Single-Blind Part and subjects randomized to receive binodenoson in the Double-Blind Part received 3 intravenous (IV) injections during the Treatment Visit: (1) placebo; (2) a low, challenge binodenoson dose to detect potential hypersensitivity reactions; and (3) an assigned binodenoson test dose. Subjects randomized to receive placebo in the Double Blind Part received 3 placebo injections. The Follow-Up Visit occurred 2 to 4 days following the Treatment Visit.
Eligible subjects were males or non-pregnant, nonlactating females ≧18 years of age weighing <350 pounds with a medical history of mild, intermittent asthma (as defined in the “Guidelines for the Diagnosis and Management of Asthma” prepared by the National Institutes of Health [NIH]) within 6 months of Screening.
Subjects were not eligible for the study if they had resting sitting systolic blood pressure (SBP)<100 or >140 mmHg, diastolic blood pressure (DBP)<60 or >90 mmHg, pulse rate >95 beats per minute (bpm), or a lower limit FEV1 at rest of <80% of the predicted value at Screening.
Dose and Mode of Administration: A stock solution of binodenoson (25 μg/mL) was administered as a bolus injection over 30 seconds (0.1 μg/kg=0.004 mL/kg of stock solution, 0.5 μg/kg=0.02 mL/kg of stock solution, 1.0 μg/kg=0.04 mL/kg of stock solution and 1.5 μg/kg=0.06 mL/kg of stock solution).
Duration of Treatment: Each subject received three 30-second bolus IV injections separated by ≧90 minutes in both the Single Blind and Double-Blind Parts of the study.
Criteria for Evaluation: The primary safety endpoint was clinically significant bronchoconstriction, defined as a ≧20% decrease in FEV1 from the predrug baseline following binodenoson administration. Other safety assessments included need for rescue medication, regular measurements of pulmonary function (FEV1 [% predicted], forced vital capacity [FVC] and forced expiratory flow during the middle half of the FVC [FEF25%-75%]), vital signs, pulse oximetry, physical examination findings, electrocardiogram (ECG) results, clinical laboratory results and adverse events.
Statistical Methods: All data collected in the study were summarized by treatment (placebo; 0.1 μg/kg binodenoson challenge; or 0.5, 1.0, or 1.5 μg/kg binodenoson) and study Part (Single-Blind or Double-Blind with univariate summaries). Continuous variables were summarized with descriptive statistics (n, mean, median, standard deviation [SD] and minimum and maximum). […]

[1] = Cohort 3, second injection 0.1 μg/kg iv bolus, 90 minutes
[2] = third injection 0.5 μg/kg iv bolus, 5 min
[3] = third injection 0.5 μg/kg iv bolus, 15 min
[4] = third injection 0.5 μg/kg iv bolus, 45 min
[5] = third injection 0.5 μg/kg iv bolus, 90 min
[6] = third injection 1.0 μg/kg iv bolus, 5 min
[7] = third injection 1.0 μg/kg iv bolus, 15 min
[8] = third injection 1.0 μg/kg iv bolus, 45 min
[9] = third injection 1.0 μg/kg iv bolus, 90 min
[10] = third injection 1.5 μg/kg iv bolus, 5 min
[11] = third injection 1.5 μg/kg iv bolus, 15 min
[12] = third injection 1.5 μg/kg iv bolus, 45 min
[13] = third injection 1.5 μg/kg iv bolus, 90 min

Nc1nc(N/N=C/C2CCCCC2)nc2c1ncn2[C@@H]1O[C@H](CO)[C@@H](O)[C@H]1O (stereo in doubt) [Binodenoson, 2-{2-[(Cyclohexyl)methylene]hydrazino}adenosine]
FEV1 (L) Mean % Change from Baseline (SD) [1]: 0.901 (2.441) % | FEV1 (L) Mean (SD) [1]: 3.343 (0.657) L | FVC Mean % Change from Baseline (SD) [1]: −0.163 (0.894) % | FVC Mean (SD) [1]: 4.334 (0.850) | changes from baseline in mean FEV1, FEV1 (% predicted), FEF25%-75%, FVC (after binodenoson 0.1 μg/kg injection): No clinically significant changes from baseline | subjects with treatment-emergent AEs (binodenoson 0.1 μg/kg): No subjects experienced treatment-emergent AEs | subjects with treatment-emergent AEs (third injection 0.5 μg/kg): 25% | FEF25%-75% Mean % Change from Baseline (SD) [2]: −3.549 (6.717) % | FEF25%-75% Mean (SD) [2]: 3.111 (0.915) | FEV1 (% predicted) Mean % Change from Baseline (SD) [2]: −2.3 (3.4) % | FEV1 (% predicted) Mean (SD) [2]: 92.6 (12.5) % predicted | FEV1 (L) Mean % Change from Baseline (SD) [2]: −2.327 (3.977) % | FEV1 (L) Mean (SD) [2]: 3.995 (0.820) L | FVC Mean % Change from Baseline (SD) [2]: −1.162 (2.708) % | FVC Mean (SD) [2]: 5.581 (1.151) | FEF25%-75% Mean % Change from Baseline (SD) [3]: −1.773 (3.375) % | FEF25%-75% Mean (SD) [3]: 3.169 (0.885) | FEV1 (% predicted) Mean % Change from Baseline (SD) [3]: −0.9 (2.1) % | FEV1 (% predicted) Mean (SD) [3]: 94.0 (11.9) % predicted | FEV1 (L) Mean % Change from Baseline (SD) [3]: −0.967 (2.171) % | FEV1 (L) Mean (SD) [3]: 4.049 (0.800) L | FVC Mean % Change from Baseline (SD) [3]: −0.033 (1.645) % | FVC Mean (SD) [3]: 5.640 (1.130) | FEF25%-75% Mean % Change from Baseline (SD) [4]: −2.338 (5.471) % | FEF25%-75% Mean (SD) [4]: 3.158 (0.899) | FEV1 (% predicted) Mean % Change from Baseline (SD) [4]: −1.5 (2.1) % | FEV1 (% predicted) Mean (SD) [4]: 93.4 (11.7) % predicted | FEV1 (L) Mean % Change from Baseline (SD) [4]: −1.455 (2.494) % | FEV1 (L) Mean (SD) [4]: 4.034 (0.821) L | FVC Mean % Change from Baseline (SD) [4]: −0.838 (3.371) % | FVC Mean (SD) [4]: 5.591 (1.122) | FEF25%-75% Mean % Change from Baseline (SD) [5]: −3.732 (9.304) % | FEF25%-75% Mean (SD) [5]: 3.106 (0.892) | FEV1 (% predicted) Mean % Change from Baseline (SD) [5]: −2.0 (3.4) % | FEV1 (% predicted) Mean (SD) [5]: 92.9 (12.5) % predicted | FEV1 (L) Mean % Change from Baseline (SD) [5]: −2.365 (3.864) % | FEV1 (L) Mean (SD) [5]: 4.000 (0.840) L | FVC Mean % Change from Baseline (SD) [5]: −0.963 (3.579) % | FVC Mean (SD) [5]: 5.600 (1.196) | subjects with treatment-emergent AEs (third injection 1.0 μg/kg): 50% | FEF25%-75% Mean % Change from Baseline (SD) [6]: 2.938 (17.701) % | FEF25%-75% Mean (SD) [6]: 3.571 (1.546) | FEV1 (% predicted) Mean % Change from Baseline (SD) [6]: −0.1 (5.7) % | FEV1 (% predicted) Mean (SD) [6]: 93.5 (11.5) % predicted | FEV1 (L) Mean % Change from Baseline (SD) [6]: −0.071 (5.830) % | FEV1 (L) Mean (SD) [6]: 3.889 (0.883) L | FVC Mean % Change from Baseline (SD) [6]: 0.316 (3.947) % | FVC Mean (SD) [6]: 5.106 (1.192) | FEF25%-75% Mean % Change from Baseline (SD) [7]: 1.896 (7.770) % | FEF25%-75% Mean (SD) [7]: 3.534 (1.364) | FEV1 (% predicted) Mean % Change from Baseline (SD) [7]: 0.0 (3.8) % | FEV1 (% predicted) Mean (SD) [7]: 93.6 (13.0) % predicted | FEV1 (L) Mean % Change from Baseline (SD) [7]: 0.113 (3.892) % | FEV1 (L) Mean (SD) [7]: 3.899 (0.884) L | FVC Mean % Change from Baseline (SD) [7]: −0.138 (3.728) % | FVC Mean (SD) [7]: 5.078 (1.156) | FEF25%-75% Mean % Change from Baseline (SD) [8]: 7.715 (11.942) % | FEF25%-75% Mean (SD) [8]: 3.759 (1.554) | FEV1 (% predicted) Mean % Change from Baseline (SD) [8]: 0.6 (6.3) % | FEV1 (% predicted) Mean (SD) [8]: 94.3 (16.4) % predicted | FEV1 (L) Mean % Change from Baseline (SD) [8]: 0.344 (6.156) % | FEV1 (L) Mean (SD) [8]: 3.926 (1.012) L | FVC Mean % Change from Baseline (SD) [8]: −1.792 (6.201) % | FVC Mean (SD) [8]: 5.020 (1.300) | FEF25%-75% Mean % Change from Baseline (SD) [9]: 9.498 (11.643) % | FEF25%-75% Mean (SD) [9]: 3.830 (1.595) | FEV1 (% predicted) Mean % Change from Baseline (SD) [9]: 2.6 (4.5) % | FEV1 (% predicted) Mean (SD) [9]: 96.3 (15.9) % predicted | FEV1 (L) Mean % Change from Baseline (SD) [9]: 2.406 (4.249) % | FEV1 (L) Mean (SD) [9]: 4.005 (0.983) L | FVC Mean % Change from Baseline (SD) [9]: −0.051 (2.348) % | FVC Mean (SD) [9]: 5.105 (1.262) | subjects with treatment-emergent AEs (third injection 1.5 μg/kg): 75% | FEF25%-75% Mean % Change from Baseline (SD) [10]: 2.411 (12.016) % | FEF25%-75% Mean (SD) [10]: 2.880 (0.584) | FEV1 (% predicted) Mean % Change from Baseline (SD) [10]: 0.4 (2.6) % | FEV1 (% predicted) Mean (SD) [10]: 91.6 (8.1) % predicted | FEV1 (L) Mean % Change from Baseline (SD) [10]: 0.336 (2.702) % | FEV1 (L) Mean (SD) [10]: 3.344 (0.610) L | FVC Mean % Change from Baseline (SD) [10]: 0.031 (2.871) % | FVC Mean (SD) [10]: 4.334 (0.845) | FEF25%-75% Mean % Change from Baseline (SD) [11]: 2.110 (5.540) % | FEF25%-75% Mean (SD) [11]: 2.890 (0.645) | FEV1 (% predicted) Mean % Change from Baseline (SD) [11]: −0.5 (2.0) % | FEV1 (% predicted) Mean (SD) [11]: 90.8 (7.8) % predicted | FEV1 (L) Mean % Change from Baseline (SD) [11]: −0.380 (2.306) % | FEV1 (L) Mean (SD) [11]: 3.330 (0.666) L | FVC Mean % Change from Baseline (SD) [11]: −1.335 (2.366) % | FVC Mean (SD) [11]: 4.281 (0.882) | FEF25%-75% Mean % Change from Baseline (SD) [12]: −1.475 (6.450) % | FEF25%-75% Mean (SD) [12]: 2.803 (0.705) | FEV1 (% predicted) Mean % Change from Baseline (SD) [12]: −0.4 (2.3) % | FEV1 (% predicted) Mean (SD) [12]: 90.9 (7.9) % predicted | FEV1 (L) Mean % Change from Baseline (SD) [12]: −0.439 (2.820) % | FEV1 (L) Mean (SD) [12]: 3.331 (0.682) L | FVC Mean % Change from Baseline (SD) [12]: −0.179 (2.938) % | FVC Mean (SD) [12]: 4.326 (0.872) | FEF25%-75% Mean % Change from Baseline (SD) [13]: 0.469 (2.514) % | FEF25%-75% Mean (SD) [13]: 2.851 (0.654) | FEV1 (% predicted) Mean % Change from Baseline (SD) [13]: 0.6 (1.3) % | FEV1 (% predicted) Mean (SD) [13]: 91.9 (7.4) % predicted | FEV1 (L) Mean % Change from Baseline (SD) [13]: 0.617 (1.762) % | FEV1 (L) Mean (SD) [13]: 3.365 (0.680) L | FVC Mean % Change from Baseline (SD) [13]: 0.537 (2.460) % | FVC Mean (SD) [13]: 4.358 (0.878) | changes from baseline in mean FEV1, FEV1 (% predicted), FEF25%-75%, FVC (third injection (0.5, 1.0, 1.5 μg/kg)): no clinically significant changes from baseline | deaths, serious AEs, premature discontinuations due to AEs (whole study): no deaths, serious AEs, or premature discontinuations due to AEs | laboratory evaluations, ECG, pulse oximetry (whole study): No clinically meaningful results
